# Measured values as given in patent US20050053560A1, “Use of a composition containing extracts of Vitis vinifera and lycopersicum for protecting the skin” (Pharmaton S.A, priority 2003, published 2005).
# System: normal human skin fibroblasts of the cell line NHDF
# Assay: Fluoroscan process: antioxidant capacity of human skin fibroblasts
# Type: cell-based
# Conditions: NHDF cells, reference substance at 25 μM
# Excerpt: For the present cytotoxicity tests and the Fluoroscan process normal human skin fibroblasts of the cell line NHDF were used as the test system, depending on their availability.
# The biologically active ingredients (standardised tomato extract, β-Carotene suspension, α-Tocopheryl acetate, standardized grape seed extract, ascorbic acid, selenium yeast) of Seresis® were first investigated in the above-mentioned amounts for possible cytotoxic effects and for their effect on the antioxidant capacity of human skin fibroblasts (NHDF). Apart from the pure mixture of active ingredients the entire contents of an active substance capsule were also used. In addition, a number of additives (oils, etc.) were also included in the test. Using two different in vitro skin models investigations were also carried out to see to what extent the protective effects of the active substances can be visualised. For this, the models were exposed to two different stressors (UV irradiation, activated immune cells).
smiles,measurement,value
Cc1c(C)c2c(c(C)c1O)CC[C@@](C)(CCC[C@H](C)CCC[C@H](C)CCCC(C)C)O2 [α-Tocopherol],antioxidant potential compared with the carrier control,120%
